Laboratory results taken from US11986471B2, “Compounds and methods of use” (Tango Therapeutics, Inc., priority 2018, dated 2024).
pIC50: −log10 of the molar value.

Tests used:
Assay type in all cases: biochemical
PRMT5 [1] = molecular target: T1, PRMT5 (Homo sapiens, UniProt O14744); experiment: PRMT5 IC50 assay in the presence of MTA as cofactor; settings: for pIC50: PRMT5, MTA as cofactor
T1 construct: purchased Viva (custom protein)
Excerpt: (§1) Table 1a indicates IC50 values (μM) against PRMT5 for exemplary compounds in the presence of SAM as cofactor, with no cofactor and with MTA as cofactor, respectively (columns 3-5). […] The Ki values can be calculated from the IC50 values as described in the Examples section. As detailed in the Examples section, for the assay performed in the presence of SAM, IC50=Ki×1.5 (Ki=IC50/1.5). For the assay performed in the presence of MTA, IC50=Ki×13.5 (Ki=IC50/13.5). Column 6 indicates the ratio between the Ki of compounds in the presence of SAM and the Ki of compounds in the presence of MTA

PRMT5 [2] = molecular target: T1, PRMT5; experiment: PRMT5 IC50 assay in the presence of SAM as cofactor
Excerpt: as §1

PRMT5 [3] = molecular target: T1, PRMT5; experiment: PRMT5 IC50 assay with no cofactor
Excerpt: as §1

[4] = ratio between the Ki in the presence of SAM and the Ki in the presence of MTA
[5] = ratio between Ki in the presence of SAM and Ki in the presence of MTA

T1 sequence (O14744 whole entry): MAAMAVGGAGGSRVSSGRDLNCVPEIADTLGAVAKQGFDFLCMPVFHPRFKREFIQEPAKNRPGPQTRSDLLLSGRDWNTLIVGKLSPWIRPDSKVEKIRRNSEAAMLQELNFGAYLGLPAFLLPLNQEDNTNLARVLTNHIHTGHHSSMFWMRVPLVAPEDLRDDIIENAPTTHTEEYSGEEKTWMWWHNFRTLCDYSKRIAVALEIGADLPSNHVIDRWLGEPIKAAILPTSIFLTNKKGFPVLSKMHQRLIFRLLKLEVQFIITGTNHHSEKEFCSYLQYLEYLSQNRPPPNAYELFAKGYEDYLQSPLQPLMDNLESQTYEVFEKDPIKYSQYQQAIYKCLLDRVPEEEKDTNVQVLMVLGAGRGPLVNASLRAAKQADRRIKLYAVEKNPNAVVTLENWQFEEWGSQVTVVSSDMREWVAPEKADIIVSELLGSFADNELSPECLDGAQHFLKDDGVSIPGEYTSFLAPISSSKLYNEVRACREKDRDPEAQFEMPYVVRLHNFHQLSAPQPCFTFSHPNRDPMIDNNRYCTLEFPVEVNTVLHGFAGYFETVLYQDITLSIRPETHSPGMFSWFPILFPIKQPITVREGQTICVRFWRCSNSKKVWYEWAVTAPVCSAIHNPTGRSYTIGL
T1 sequence (Q9BQA1 whole entry partner): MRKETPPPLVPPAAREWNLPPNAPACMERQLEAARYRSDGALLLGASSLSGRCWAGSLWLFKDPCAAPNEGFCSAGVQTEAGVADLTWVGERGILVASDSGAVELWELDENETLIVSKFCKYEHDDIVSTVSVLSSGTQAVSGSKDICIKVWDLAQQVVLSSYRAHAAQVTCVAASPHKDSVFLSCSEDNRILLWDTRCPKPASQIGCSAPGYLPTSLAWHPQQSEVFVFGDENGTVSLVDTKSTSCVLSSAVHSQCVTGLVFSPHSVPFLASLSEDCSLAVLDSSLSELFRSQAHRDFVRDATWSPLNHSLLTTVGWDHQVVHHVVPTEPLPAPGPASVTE

Structure (SMILES) | pIC50 (PRMT5 [1]) | SAM/MTA Ratio (PRMT5 [1]; [4]) | pIC50 (PRMT5 [2]) | pIC50 (PRMT5 [3]) | SAM/MTA Ratio (PRMT5 [1]; [5]) | pIC50 (PRMT5 [3]; read-out: No Co-factor IC50)
CC(=O)N1C[C@@H]2[C@H](C1)[C@H]2Nc1cc(C(=O)NC[C@H](O)CN2CCc3cc(OCc4ocnc4C)ccc3C2)ncn1 [Compound 620, 6-{[(1R,5S,6R)-3-acetyl-3-azabicyclo[3.1.0]hexan-6-yl]amino}-N-[(2S)-2-hydroxy-3-[6-[(4-methyl-1,3-oxazol-5-yl)methoxy]-1,2,3,4-tetrahydroisoquinolin-2-yl]propyl]pyrimidine-4-carboxamide] | 5.30 to 6.30 | A (a Ki ratio greater than or equal to 10 fold between the Ki in the presence of SAM and the Ki in the presence of MTA) | 5.30 to 6.30 | ≤ 5.30 |  | 
Cc1c(OCc2cnco2)ccc2c1CCN(C[C@@H](O)CNC(=O)c1cc(NC3CN(C(=O)CC(C)C)C3)ncn1)C2 [Compound 565, N-[(2S)-2-hydroxy-3-{5-methyl-6-[(1,3-oxazol-5-yl)methoxy]-1,2,3,4-tetrahydroisoquinolin-2-yl}propyl]-6-{[1-(3-methylbutanoyl)azetidin-3-yl]amino}pyrimidine-4-carboxamide] | 5.30 to 6.30 | A (a Ki ratio greater than or equal to 10 fold between the Ki in the presence of SAM and the Ki in the presence of MTA) | 5.30 to 6.30 | ≤ 5.30 |  | 
CCC(=O)N1CC(Nc2cc(C(=O)NC[C@H](O)CN3CCc4c(ccc(OCc5cnco5)c4C)C3)ncn2)C1 [Compound 567, N-[(2S)-2-hydroxy-3-{5-methyl-6-[(1,3-oxazol-5-yl)methoxy]-1,2,3,4-tetrahydroisoquinolin-2-yl}propyl]-6-[(1-propanoylazetidin-3-yl)amino]pyrimidine-4-carboxamide] | 6.30 to 7.30 | A (a Ki ratio greater than or equal to 10 fold between the Ki in the presence of SAM and the Ki in the presence of MTA) | 6.30 to 7.30 | ≤ 5.30 |  | 
Cc1c(OCc2ccnn2C)ccc2c1CCN(C[C@@H](O)CNC(=O)c1ccnc(NC3CCC3)c1)C2 [Compound 161, 2-(cyclobutylamino)-N-[(2S)-2-hydroxy-3-[5-methyl-6-[(2-methylpyrazol-3-yl)methoxy]-3,4-dihydro-1H-isoquinolin-2-yl]propyl]pyridine-4-carboxamide] | 5.30 to 6.30 |  | 5.30 to 6.30 |  | A (a Ki ratio greater than or equal to 10 fold between the Ki in the presence of SAM and the Ki in the presence of MTA) | ≤ 5.30
O=C(NC[C@H](O)CN1CCc2cc(OCc3cnco3)ccc2C1)c1cc(NC2CCOCC2)ccn1 [Compound 511, (S)—N-(2-hydroxy-3-(6-(oxazol-5-ylmethoxy)-3,4-dihydroisoquinolin-2(1H)-yl)propyl)-4-((tetrahydro-2H-pyran-4-yl)amino)picolinamide] | 5.30 to 6.30 | A (a Ki ratio greater than or equal to 10 fold between the Ki in the presence of SAM and the Ki in the presence of MTA) | 5.30 to 6.30 | ≤ 5.30 |  | 
CC(=O)N1CCC(Nc2cc(C(=O)NC[C@@H](O)CN3CCc4c(C)c(OCc5ocnc5C)cc(F)c4C3)cc(N3CCCCC3)n2)CC1 [Compound 652] | 6.30 to 7.30 |  | 6.30 to 7.30 |  | A (a Ki ratio greater than or equal to 10 fold between the Ki in the presence of SAM and the Ki in the presence of MTA) | 5.30 to 6.30
Cc1ncoc1COc1ccc2c(c1)CCN(C[C@@H](O)CNC(=O)c1cc(NC3CCC3)nc(N3CCCCC3)c1)C2 [Compound 633, 2-(cyclobutylamino)-N-[(2S)-2-hydroxy-3-{6-[(4-methyl-1,3-oxazol-5-yl)methoxy]-1,2,3,4-tetrahydroisoquinolin-2-yl}propyl]-6-(piperidin-1-yl)pyridine-4-carboxamide] | 6.30 to 7.30 |  | 5.30 to 6.30 |  | A (a Ki ratio greater than or equal to 10 fold between the Ki in the presence of SAM and the Ki in the presence of MTA) | ≤ 5.30
CO[C@H]1CC[C@@H](Nc2cc(C(=O)NC[C@H](O)CN3CCc4c(ccc(OCc5cnco5)c4C)C3)ncn2)CC1 [Compound 541, N-[(2S)-2-hydroxy-3-{5-methyl-6-[(1,3-oxazol-5-yl)methoxy]-1,2,3,4-tetrahydroisoquinolin-2-yl}propyl]-6-{[(1s,4s)-4-methoxycyclohexyl]amino}pyrimidine-4-carboxamide] | 6.30 to 7.30 | A (a Ki ratio greater than or equal to 10 fold between the Ki in the presence of SAM and the Ki in the presence of MTA) | 5.30 to 6.30 | ≤ 5.30 |  | 
O=C(NC[C@H](O)CN1CCc2c(ccc(OCc3cnco3)c2Br)C1)c1cc(NC2CCCCC2)ncn1 [Compound 377, (S)—N-(3-(5-bromo-6-(oxazol-5-ylmethoxy)-3A-dihydroisoquinolin-2(1H)-yl)-2-hydroxypropyl)-6-(cyclohexylamino)pyrimidine-4-carboxamide] | 5.30 to 6.30 |  | 5.30 to 6.30 |  | A (a Ki ratio greater than or equal to 10 fold between the Ki in the presence of SAM and the Ki in the presence of MTA) | ≤ 5.30
Cc1c(OCc2cnco2)ccc2c1CCN(C[C@@H](O)CNC(=O)c1cc(N[C@H]3C[C@H](C(=O)N4CCC4)C3)ncn1)C2 [Compound 519, N-[(2S)-2-hydroxy-3-{5-methyl-6-[(1,3-oxazol-5-yl)methoxy]-1,2,3,4-tetrahydroisoquinolin-2-yl}propyl]-6-{[(1r,3r)-3-(azetidine-1-carbonyl)cyclobutyl]amino}pyrimidine-4-carboxamide] | 5.30 to 6.30 | A (a Ki ratio greater than or equal to 10 fold between the Ki in the presence of SAM and the Ki in the presence of MTA) | 5.30 to 6.30 | ≤ 5.30 |  | 
CC(=O)N1CC(Nc2nc(C(=O)NC[C@H](O)CN3CCc4cc(OCc5ocnc5C)ccc4C3)cc(N3CCCCC3)n2)C1 [Compound 608, (S)-2-((1-acetylazetidin-3-yl)amino)-N-(2-hydroxy-3-(6-((4-methyloxazol-5-yl)methoxy)-3,4-dihydroisoquinolin-2(1H)-yl)propyl)-6-(piperidin-1-yl)pyrimidine-4-carboxamide] | 6.30 to 7.30 | A (a Ki ratio greater than or equal to 10 fold between the Ki in the presence of SAM and the Ki in the presence of MTA) | 5.30 to 6.30 | ≤ 5.30 |  | 
CC1(CCC(=O)N2CCC(Nc3cc(C(=O)NC[C@H](O)CN4CCc5cc(OCc6cnco6)ccc5C4)ncn3)CC2)N=N1 [Compound 363, N-[(2S)-2-hydroxy-3-[6-(oxazol-5-ylmethoxy)-3N-dihydro-1H-isoquinolin-2-yl]propyl]-6-[[1-[3-(3-methyldiazirine-3-yl)propanoyl]-4-piperidyl]amino]pyrimidine-4-carboxamide] | 6.30 to 7.30 |  | 6.30 to 7.30 |  | A (a Ki ratio greater than or equal to 10 fold between the Ki in the presence of SAM and the Ki in the presence of MTA) | 5.30 to 6.30
CCCN(C)c1cc(C(=O)NC[C@H](O)CN2CCc3cc(OCc4ocnc4C)ccc3C2)cc(NC2CCC2)n1 [Compound 553, 2-(cyclobutylamino)-N-[(2S)-2-hydroxy-3-{6-[(4-methyl-1,3-oxazol-5-yl)methoxy]-1,2,3,4-tetrahydroisoquinolin-2-yl}propyl]-6-[methyl(propyl)amino]pyridine-4-carboxamide] | 6.30 to 7.30 | A (a Ki ratio greater than or equal to 10 fold between the Ki in the presence of SAM and the Ki in the presence of MTA) | 5.30 to 6.30 | ≤ 5.30 |  | 
CC(=O)N1CCC(Nc2cc(C(=O)NC[C@H](O)CN3CCc4c(ccc(OCc5cnnn5C)c4C)C3)ncn2)CC1 [Compound 276, (S)-6-((1-acetylpiperidin-4-yl)amino)-N-(2-hydroxy-3-[5-methyl-6-((1-methyl-1H-1,2,3-triazol-5-yl)methoxy)-3N-dihydroisoquinolin-2(1H)-yl)propyl)pyrimidine-4-carboxamide] | 5.30 to 6.30 |  | 5.30 to 6.30 |  | A (a Ki ratio greater than or equal to 10 fold between the Ki in the presence of SAM and the Ki in the presence of MTA) | ≤ 5.30
Cc1c(OCc2cnco2)ccc2c1CCN(C[C@@H](O)CNC(=O)c1ccnc(N[C@H]3C[C@H](O)C3)c1)C2 [Compound 552, N—((S)-2-hydroxy-3-(5-methyl-6-(oxazol-5-ylmethoxy)-3,4-dihydroisoquinolin-2(1H)-yl)propyl)-2-(((1r,3S)-3-hydroxycyclobutyl)amino)isonicotinamide] | 5.30 to 6.30 | A (a Ki ratio greater than or equal to 10 fold between the Ki in the presence of SAM and the Ki in the presence of MTA) | 5.30 to 6.30 | ≤ 5.30 |  | 
Cc1ncoc1COc1ccc2c(c1C)CCN(C[C@@H](O)CNC(=O)c1cc(NC3CCC3)nc(N3CCCCC3)c1)C2 [Compound 557, 2-(cyclobutylamino)-N-[(2S)-2-hydroxy-3-{5-methyl-6-[(4-methyl-1,3-oxazol-5-yl)methoxy]-1,2,3,4-tetrahydroisoquinolin-2-yl}propyl]-6-(piperidin-1-yl)pyridine-4-carboxamide] | 6.30 to 7.30 | A (a Ki ratio greater than or equal to 10 fold between the Ki in the presence of SAM and the Ki in the presence of MTA) | 5.30 to 6.30 | ≤ 5.30 |  | 
